Read-outs that look alike come from different tables or passages of the source.
Tested on: progressive prostatic cancer in stage 4 with confirmed bone metastasis

With `[HH]` [hydrogen gas, hydrogen] the PSA value (about 1 month after suction started, hydrogen 6.6% by volume, 60 to 90 minutes/day, with bicalutamide, Flivas OD, initial 92.5) was 12.74 ng/mL, the PSA value (about 2 months after suction started, with internal medicines, before the anticancer agent infusion) was 7.53 ng/mL and the “shade densities at the parts of bone metastasis, whole body scintigraphy” value (about 12 months after suction started, visually inspected, combined therapy) was “a half or less”. For the same molecule, the PSA value (about 12.5 months after suction started, with internal medicines, docetaxel infusions and hormone injections) was 1.69 ng/mL.

From patent US20200078393A1, “COMPOSITION COMPRISING HYDROGEN GAS FOR SUPPRESSION OR PREVENTION OF CANCER METASTASIS” (MiZ Company Limited, priority 2018, published 2020)
